The subject of assay [1] is human peripheral blood mononuclear cells (PBMCs). Kind of assay: ELISA assay of immunocyte activator: induction of IFN-γ in human PBMCs. The class given is cell-based. As to conditions: 24 h, 37 °C, read-out: EC50 IFN-γ ratio (inducing human PBMCs to produce IFN-γ). The procedure:
The immune activity of each compound is represented by the function of inducing human peripheral blood mononuclear cells (PBMCs) to produce the immune cytokine IFN-γ by, and the EC50 values thereof are shown in Table 3.
• 1) Peripheral blood samples from healthy human volunteer were collected into heparin anticoagulant tubes to reach 5 mL of fresh blood, and PBS was added at a ratio of 1:1 to dilute the blood (2 mL+2 mL in conventional blood collection tubes). • 2) 5 mL of lymphocyte separation medium was put in a 15 mL sterile centrifuge tube for use. • 3) The diluted blood was aspirated and slowly added from 1 cm above the separation medium along the tube wall, so that the diluted blood overlaid the separation medium and formed a distinct interface therewith. • 4) The centrifuge tube was centrifuged at 2000 rpm at room temperature for 20 min. Now five layers formed in the centrifuge tube: the top layer was plasma layer, and the layer between the plasma layer and the lymphocyte separation medium was the lymphocyte layer as a white film. • 5) The mononuclear cell layer as a white film in the middle was aspirated carefully and mononuclear cells were aspirated as many as possible. The mononuclear cells were washed by more than 5 volumes of PBS twice, and each time, the mononuclear cells were centrifuged at 1500 rpm for 10 min. • 6) The supernatant was removed, then 1 mL of 1640 medium was added and mixed uniformly. A small amount of the mixture was taken for cell counting.
The prepared PBMCs were plated in a 96-well plate (Costar, 3894) (2×10^5 cells per well). Each compound in Table 3 was taken and added into the wells with plated cells at ten concentrations with uniform gradient distribution (0.0001-10 μM, diluted with […] medium containing […]).
A general note: ELISA stands for enzyme-linked immunosorbent assay.

In another assay the test system is MC38-hPD-L1 cells. The experiment in a line: Tumor inhibition assay in mice bearing MC38-hPD-L1 colon cancer. It counts as in vivo, mouse. As to conditions: PD-L1 antibody 3 mg/kg, intraperitoneal, Day 8 and Day 12 after inoculation. As to the method:
MC38-hPD-L1 cells (a humanized MC38 colon cancer cell line expressing human PD-L1 protein, Shanghai Model Organisms Center, Inc.) in the logarithmic phase were collected by digestion and centrifugation, and washed with PBS twice before counting, and the cell concentration was adjusted to 2.3×10^5 cells/mL. The mice were 6-week-old SPF-grade humanized C57BL/6 mice. The right back of the mice was shaved completely with a shaver, and 100 μL of the cell suspension was aspirated with a syringe and injected subcutaneously into the back of the mice after removing bubbles. When the tumor diameter reached 4-5 mm, administration was started.
Assessment of therapeutic effect on tumor-bearing mice and antitumor effect of the compounds: tumor-bearing mice (BALB/c) were randomly divided into control group, Atezolizumab antibody group (PD-L1 antibody group), and PD-L1-KX conjugate group (Atezolizumab-conjugated compound KX) (5 mice per group). […] The tumor was measured with a vernier caliper and the survival of the mice was recorded every three days at the beginning of administration and after administration. The tumor volume was calculated by the following method: 0.5×a×b^2, wherein a is the long-axis diameter and b is the short-axis diameter. […]

[2] abbreviates: Homo sapiens, PBMC, Note a: sample pretreated with human liver microsomal enzyme, 2 h.
[3] abbreviates: Homo sapiens, PBMC, no pretreatment marked.

Where two headings read alike, the source gives them in different places.

Regarding `C=C(CC)C(=O)c1ccc(OCC(=O)NCc2ccc(Cn3c(=O)n(COC(=O)OCc4ccc(NC(=O)[C@H](C)NC(=O)[C@@H](NC(=O)CCOCCOCCOCCOCCNC(=O)CCC(=O)N5Cc6ccccc6C#Cc6ccccc65)C(C)C)cc4)c4c(N)nc(OCCOC)nc43)cc2)c(Cl)c1Cl` [Compound K60], the EC50 in assay [1] (Note a: sample pretreated with human liver microsomal enzyme, 2 h) was 90 nM.

As for `C=C(CN1CCN(C(=O)n2c(=O)n(CCCc3cn(CCOCCOCCOCC(=O)OCC)nn3)c3nc(OCCCC)nc(N)c32)CC1)C(=O)NCCOCCOCCOCCOCCNC(=O)CCC(=O)N1Cc2ccccc2C#Cc2ccccc21` [Compound K61], the EC50 in assay [1] (Homo sapiens, PBMC, pH 6, 24 h, Note b: sample pretreated with equimolar glutathione, PBS pH 6, 37 °C) came out at 2 nM. `C=C(CN(C[C@H](C)c1ccc(-c2c(O)cc(C)c3[nH]c(=O)c4sccc4c23)cc1)C(=O)OCc1ccc(NC(=O)[C@H](CCCNC(N)=O)NC(=O)[C@@H](NC(=O)CCOCCOCCOCCOCCN2C(=O)C=CC2=O)C(C)C)cc1)C(=O)N1CCC(n2cc(Cn3c(=O)n(C(=O)N4CCN(C)CC4)c4c(N)nc(OCCCC)nc43)nn2)CC1` [Compound K62]: the EC50 in assay [1] (setting [2]) turned out to be 10 nM. Regarding `CCC[C@H](C)Oc1nc(N)c2c(n1)n(CC1CC[N+]([O-])(CCO)CC1)c(=O)n2C(=O)NCCNC(=O)OCc1ccc(NC(=O)[C@H](CCCNC(N)=O)NC(=O)[C@@H](NC(=O)CCOCCOCCOCCOCCNC(=O)CCC(=O)N2Cc3ccccc3C#Cc3ccccc32)C(C)C)cc1` (some centres unmarked) [Compound K63], the EC50 in assay [1] (setting [2]) came to 80 nM. Take `C=C(CN(CCCCc1cn(CCOCCOCCOCCn2cc(Cn3c(=O)[nH]c4c(N)nc(OCCCC)nc43)nn2)nn1)C[C@H](C)c1ccc(-c2c(O)cc(C)c3[nH]c(=O)c4sccc4c23)cc1)C(=O)NCCCCCCNC(=O)[C@@H](CCCCn1cc(COCCOCCOCCN=C=S)nn1)NC(=O)CCC(=O)NCc1ccc(Cn2c(=O)[nH]c3c(N)nc(OCCOC)nc32)cc1` [Compound K64]: the EC50 in assay [1] (setting [3]) is 10 nM. Take `C=CCNC(=S)NCC(=O)n1c(=O)n(Cc2ccc(CNC(=O)CCc3cn(CCOCCOCCOCCNC(=O)CCN4C(=O)C=CC4=O)nn3)cc2)c2nc(OCCOC)nc(N)c21` [Compound K67]: in assay [1] (Homo sapiens, PBMC, pH 5, 24 h, Note d: sample pretreated by hydrolysis, acetate buffer pH 5, 37 °C, 72 h), the EC50 came to 260 nM. Regarding `C#CCn1c(=O)[nH]c2c(N)nc(OCCCC)nc21` [GY100, reference compound], the EC50 in assay [1] (setting [3]) was found to be 110 nM. For `C#CCCCn1c(=O)[nH]c2c(N)nc(OCCCC)nc21` [GY121, reference compound], in assay [1] (setting [3]), the EC50 stood at 50 nM. On to `CCCCOc1nc(N)c2nc(O)n(Cc3cn(CCOCCOCCOCCN=[N+]=[N-])nn3)c2n1` [GY155, reference compound], for which the EC50 in assay [1] (no pretreatment marked) was 330 nM.

`CCC[C@H](C)Oc1nc(N)c2[nH]c(=O)n(Cc3cn(C4CCNCC4)nn3)c2n1` [GY228]: the EC50 in assay [1] (setting [3]) was determined as 54 nM. Regarding `C=C(CN1CCC(n2cc(Cn3c(=O)[nH]c4c(N)nc(O[C@@H](C)CCC)nc43)nn2)CC1)C(=O)OCC` [GY229], the EC50 in assay [1] (setting [3]) was 28 nM.

As for `C=C(CN1CCC(n2cc(Cn3c(=O)[nH]c4c(N)nc(O[C@@H](C)CCC)nc43)nn2)CC1)C(=O)O` [GY300], in assay [1] (setting [3]), the EC50 is 31 nM. In the case of `CCCCOc1nc(N)c2[nH]c(=O)n(CCCc3cn(CCOCCOCCOCC(=O)OCC)nn3)c2n1` [GY1401], the EC50 in assay [1] (setting [3]) turned out to be 2 nM. `CCCCOc1nc(N)c2[nH]c(=O)n(Cc3ccc(NC(=S)Nc4sc5c(c4C(=O)OCC)CCCC5)cc3)c2n1` [KJ005]: the EC50 in assay [1] (setting [3]) was determined as 370 nM. For the molecule `CCCCOc1nc(N)c2[nH]c(=O)n(Cc3ccc(NC(=S)Nc4sc5c(c4C(=O)O)CCCC5)cc3)c2n1` [KJ006], the EC50 in assay [1] (setting [3]) amounted to 290 nM. Take `CCC[C@H](C)Oc1nc(N)c2[nH]c(=O)n(CC3CCNCC3)c2n1` [KJ-1b, reference compound]: the EC50 in assay [1] (setting [3]) was 18 nM. With `CCC[C@H](C)Oc1nc(N)c2[nH]c(=O)n(CC3CCN(CCO)CC3)c2n1` [KJ-3b, reference compound], in assay [1] (setting [3]), the EC50 was 210 nM. On to `CCC[C@H](C)Oc1nc(N)c2[nH]c(=O)n(CC3CC[N+]([O-])(CCO)CC3)c2n1` (some centres unmarked) [KJ-3b-O], for which the EC50 in assay [1] (setting [3]) is 90 nM. As for `COCCOc1nc(N)c2[nH]c(=O)n(Cc3ccc(CNC(=O)CCc4cn(CCOCCOCCOCCNC(=O)CCN5C(=O)C=CC5=O)nn4)cc3)c2n1` [KJ-008], in assay [1] (setting [3]), the EC50 came out at 7 nM. On to `CCCCOc1nc(N)c2[nH]c(=O)n(Cc3cn(CCN)nn3)c2n1` [KJ-032], for which the EC50 in assay [1] (setting [3]) was 110 nM. Still for that read-out and setting: under `C=C(CN1CCC(Cn2c(=O)[nH]c3c(N)nc(O[C@@H](C)CCC)nc32)CC1)C(=O)OCC` [KJ-096] stands 3 nM; under `C=C(CN1CCC(Cn2c(=O)[nH]c3c(N)nc(O[C@@H](C)CCC)nc32)CC1)C(=O)O` [KJ-097], 1 nM; under `C=C(CN1CCC(Cn2c(=O)[nH]c3c(N)nc(OCCCC)nc32)CC1)C(=O)OCC` [KJ-098], 310 nM. Turning to `C=C(CN1CCC(Cn2c(=O)[nH]c3c(N)nc(OCCCC)nc32)CC1)C(=O)O` [KJ-099], the EC50 in assay [1] (setting [3]) was found to be 420 nM. For the molecule `CCC[C@H](C)Oc1nc(N)c2[nH]c(=O)n(CC3CCN(C(=O)/C=C/C(=O)c4ccc(OC)cc4)CC3)c2n1` [KJ-102], the EC50 in assay [1] (setting [3]) was determined as 3 nM.

As for `CCCCOc1nc(N)c2[nH]c(=O)n(CC3CCN(C(=O)/C=C/C(=O)c4ccc(OC)cc4)CC3)c2n1` [KJ-104], in assay [1] (setting [3]), the EC50 was 9 nM.

On to `C=C(CC(=O)O)C(=O)NCc1ccc(Cn2c(=O)[nH]c3c(N)nc(OCCOC)nc32)cc1` [KJ-138], for which the EC50 in assay [1] (setting [3]) amounted to 50 nM. Turning to `CCCCOc1nc(N)c2[nH]cc(Cc3ccc4c(c3)CNCC4)c2n1` [PMQ-1, reference compound], the EC50 in assay [1] (setting [3]) came to 320 nM. For the molecule `COCCOc1nc(N)c2[nH]c(=O)n(Cc3ccc(CNC(=O)CCC(=O)O)cc3)c2n1` [SZU-101, reference compound], in assay [1] (no pretreatment marked), the EC50 turned out to be 500 nM. With `C=C(CC)C(=O)c1ccc(OCC(=O)NCc2ccc(Cn3c(=O)[nH]c4c(N)nc(OCCOC)nc43)cc2)c(Cl)c1Cl` [SZU-103, reference compound], the EC50 in assay [1] (setting [3]) stood at 100 nM.

On to `C#CCCCCC(NC(=O)CCC(=O)NCc1ccc(Cn2c(=O)[nH]c3c(N)nc(OCCOC)nc32)cc1)C(=O)O` (centres unmarked) [SZU-115, reference compound], for which the EC50 in assay [1] (no pretreatment marked, listed as GY115, 1440 min) was determined as 300 nM. On to `C#CCCC(=O)NCc1ccc(Cn2c(=O)[nH]c3c(N)nc(OCCOC)nc32)cc1` [SZU-136, reference compound], for which the EC50 in assay [1] (setting [3]) came to 370 nM.

Turning to `COCCOc1nc(N)c2[nH]c(=O)n(Cc3ccc(CNC(=O)CCC(=O)NC(CCCCc4cn(CCOCCOCCOc5c(OC)cc(/C=C/C(=O)N6CCC=CC6=O)cc5OC)nn4)C(=O)O)cc3)c2n1` (centres unmarked) [SZU-191], in assay [1] (setting [3]), the EC50 was 100 nM. On to `C=C(CC(=O)OC)C(=O)NCc1ccc(Cn2c(=O)[nH]c3c(N)nc(OCCOC)nc32)cc1` [SZU-275], for which the EC50 in assay [1] (setting [3]) came to 1 nM.

Regarding “Atezolizumab: PD-L1 antibody purchased from MedChemExpress (Atezolizumab, CAS number: 1380723-44-3)”, the “tumor volume inhibition rate (Atezolizumab as control)” value in the assay on MC38-hPD-L1 cells came to 67%.

Source of the values: patent publication US20260325661A1, “ANTIBODY-CONJUGATED IMMUNO-ACTIVATING SMALL MOLECULE COMPOUND, AND USE” (SHENZHEN CONJUGENIX PHARMACEUTICAL TECHNOLOGY CO., LTD, priority 2023, published 2026).
